This is an account of results in DBAASP.

Among the test systems are Listeria grayi DSM 20601; Escherichia coli IS117#; Escherichia coli IS37#; Shigella dysenteriae; Candida albicans; Candida glabrata; Streptococcus agalactiae; Pseudomonas aeruginosa 1; Pseudomonas aeruginosa 5.
Common to all, as to assay: ≥ marks a high value that may be exact or a test limit, other limits are often not marked, values filed in µg/mL are converted to µM
Experiment [1] concerns Staphylococcus epidermidis DSM 3269.
Experiment [2] has as its system Candida albicans ATCC 2002.
For experiment [3], the system named is Candida albicans ATCC 90028.
For experiment [4], the system named is Candida parapsilosis ATCC 22019.
Experiment [5] concerns Enterobacter cloacae ATCC 13047.
The test system of experiment [6] is Enterococcus faecalis ATCC 29212.
For experiment [7], the system named is Escherichia coli ATCC 25922.
Experiment [8] concerns Klebsiella pneumoniae ATCC 700603.
Experiment [9] relates to Klebsiella pneumoniae IS59#.
Experiment [10] relates to Pseudomonas aeruginosa ATCC 27853.
Experiment [11] has as its system Pseudomonas aeruginosa CMCCB 1010.
In experiment [12] the test system is Pseudomonas aeruginosa IS350#.
In experiment [13] the test system is Staphylococcus aureus ATCC 25923.
Experiment [14] deals with Mycobacterium tuberculosis H37Rv.
Experiment [15] concerns Mycobacterium tuberculosis.
In experiment [16] the test system is Pseudomonas aeruginosa ATCC 9027.
Experiment [17] has as its system Salmonella enterica subsp. enterica serovar Typhimurium ATCC 14028.
Experiment [18] has as its system Staphylococcus aureus ATCC 29313.
The test system of experiment [19] is Acinetobacter baumannii AB1.
For experiment [20], the system named is Acinetobacter baumannii AB2.
Experiment [21] has as its system Acinetobacter baumannii AB3.
Experiment [22] relates to Acinetobacter baumannii ATCC 19606.
The subject of experiment [23] is Carnobacterium maltaromaticum UI49.
Experiment [24] relates to Lacticaseibacillus casei NCDO 2713.
The test system of experiment [25] is Lacticaseibacillus casei subsp. casei NCDO 161.
Experiment [26] relates to Lactiplantibacillus plantarum 965.
Experiment [27] concerns Lactiplantibacillus plantarum UI50.
For experiment [28], the system named is Latilactobacillus sakei 706.
Experiment [29] relates to Latilactobacillus sakei NCDO 2714.
Experiment [30] relates to Pediococcus pentosaceus NCDO 990.
The test system of experiment [31] is Pediococcus pentosaceus Pac1.0.
Experiment [32] concerns Weissella viridescens NCDO 1655.

Values after ≈ are worked out from the molar mass of the structure shown.

As to `CC[C@H](C)[C@H](NC(=O)CNC(=O)[C@H](CO)NC(=O)[C@@H](N)CS)C(=O)N[C@H](C(=O)N[C@@H](CCCCN)C(=O)N[C@@H](CCC(N)=O)C(=O)N[C@H](C(=O)N[C@@H](CS)C(=O)N[C@H](C(=O)N[C@@H](CS)C(=O)N[C@@H](Cc1ccc(O)cc1)C(=O)N[C@@H](CCCN=C(N)N)C(=O)N[C@@H](CCCCN)C(=O)O)[C@@H](C)O)[C@@H](C)O)[C@@H](C)CC` [CSGIIKQTCTCYRK], the MIC (against Listeria grayi DSM 20601; in [1]) was 30 µM (≈ 48.1 µg/mL) each time.
Regarding `CC[C@H](C)[C@@H]1NC(=O)[C@H](C)NC(=O)[C@@H](NC(=O)[C@H](Cc2ccccc2)NC(=O)[C@@H](NC(=O)[C@H](C)NC(=O)[C@@H]2CCCN2C(=O)CNC(=O)[C@@H](NC(=O)[C@H](CCCCN)NC(=O)[C@H](C)NC(=O)[C@H](C)NC(=O)[C@@H](NC(=O)[C@H](CCCN=C(N)N)NC(=O)[C@H](CC(C)C)NC(=O)[C@@H](NC(=O)[C@H](C)NC(=O)[C@@H]2CCCN2C(=O)[C@H](CC(C)C)NC(=O)[C@@H](N)Cc2ccccc2)C(C)C)C(C)C)C(C)C)C(C)C)CSSC[C@@H](C(=O)O)NC(=O)[C@H](CCCCN)NC(=O)[C@H](CCC(N)=O)NC(=O)[C@H]([C@@H](C)O)NC1=O` [FLPAVLRVAAKVGPAVFCAITQKC], the MIC in experiment [2] worked out at 0.2 µM (≈ 0.5 µg/mL); in [3], 4 µM (≈ 9.99 µg/mL); in experiment [4] it was 2 µM (≈ 5 µg/mL); in [5] it was 2 µM (≈ 5 µg/mL); in [6], 4 µM (≈ 9.99 µg/mL); in [7], 0.999 µM (≈ 2.5 µg/mL). Also, the MIC in the experiment on Escherichia coli IS117# is 20 µM (≈ 50 µg/mL); in the experiment on Escherichia coli IS37#, 20 µM (≈ 50 µg/mL); in experiment [8], 4 µM (≈ 9.99 µg/mL); in experiment [9] it was 2 µM (≈ 5 µg/mL); in experiment [10], 2 µM (≈ 5 µg/mL); in experiment [11], 4 µM (≈ 9.99 µg/mL). The MIC in experiment [12] worked out at 4 µM (≈ 9.99 µg/mL); against Shigella dysenteriae it was 4 µM (≈ 9.99 µg/mL); in experiment [13], 0.999 µM (≈ 2.5 µg/mL).
`CC[C@H](C)[C@H](NC(=O)[C@H](CC(C)C)NC(=O)[C@H](CO)NC(=O)[C@@H]1CCCN1C(=O)[C@@H](NC(=O)[C@H](C)NC(=O)[C@H](CCCCN)NC(=O)[C@H](CCSC)NC(=O)[C@H](C)NC(=O)[C@H](CC(C)C)NC(=O)[C@H](CCCCN)NC(=O)CNC(=O)[C@H](CC(C)C)NC(=O)[C@H](Cc1ccccc1)NC(=O)CNC(=O)[C@H](Cc1c[nH]c2ccccc12)NC(=O)[C@@H](N)Cc1ccccc1)C(C)C)C(=O)NCC(=O)NCC(=O)N[C@@H](CC(N)=O)C(=O)N[C@@H](CCCCN)C(=O)N[C@@H](CCCCN)C(=O)O` [FWGFLGKLAMKAVPSLIGGNKK]: the MIC in the experiment on Candida albicans came to 3.12 µM (≈ 7.38 µg/mL); against Candida glabrata it was 25 µM (≈ 59.1 µg/mL); in experiment [7] it was 24 µM (≈ 56.7 µg/mL); in [14] it was 13.6 µM (≈ 32.1 µg/mL); in [15] it was 8.5 µM (≈ 20.1 µg/mL); in [16], 5 µM (≈ 11.8 µg/mL). Besides, the minimal inhibitory concentration (MIC) in experiment [13] is 5 µM (≈ 11.8 µg/mL); in the experiment with Streptococcus agalactiae it was 10 µM (≈ 23.6 µg/mL).
With `CC[C@H](C)[C@H](NC(=O)[C@H](CCCCN)NC(=O)CNC(=O)[C@H](CCSC)NC(=O)[C@H](C)NC(=O)[C@H](Cc1cnc[nH]1)NC(=O)[C@H](C)NC(=O)[C@@H](NC(=O)[C@H](CC(C)C)NC(=O)[C@H](CCC(N)=O)NC(=O)[C@H](CCCCN)NC(=O)CNC(=O)[C@H](C)NC(=O)[C@H](CC(=O)O)NC(=O)[C@H](CCCCN)NC(=O)[C@@H](NC(=O)[C@@H](NC(=O)[C@H](CC(=O)O)NC(=O)[C@H](Cc1ccccc1)NC(=O)[C@@H](NC(=O)CN)C(C)C)[C@@H](C)CC)[C@@H](C)CC)C(C)C)C(=O)N[C@@H](C)C(=O)N[C@@H](CCC(=O)O)C(=O)N[C@@H](CCCCN)C(=O)N[C@H](C(N)=O)C(C)C` [GVFDIIKDAGKQLVAHAMGKIAEKV], the MIC in experiment [7] was 303 µM (≈ 800 µg/mL); in experiment [8], more than 303 µM; in [17] it was more than 303 µM; in experiment [18] it was not below 303 µM.
Regarding `CC[C@H](C)[C@H](NC(=O)[C@H](CCCCN)NC(=O)[C@H](CCCCN)NC(=O)[C@H](Cc1ccc(O)cc1)NC(=O)[C@H](CCC(=O)O)NC(=O)[C@H](CCCN=C(N)N)NC(=O)[C@H](C)NC(=O)[C@@H](N)CC(C)C)C(=O)N[C@H](C(=O)N[C@@H](CCC(=O)O)C(=O)N[C@@H](CCCCN)C(=O)N[C@@H](CC(C)C)C(=O)N[C@@H](CCCCN)C(=O)N[C@@H](CCCN=C(N)N)C(=O)N[C@@H](Cc1c[nH]c2ccccc12)C(=O)N[C@@H](CC(C)C)C(=O)N[C@@H](CCCN=C(N)N)C(=O)N[C@@H](CCC(N)=O)C(=O)N[C@H](C(=O)N[C@@H](CC(C)C)C(=O)N[C@@H](CCCN=C(N)N)C(=O)N[C@H](C(=O)N[C@@H](CC(C)C)C(=O)N[C@@H](CCCN=C(N)N)C(=O)O)[C@@H](C)O)C(C)C)C(C)C` [LAREYKKIVEKLKRWLRQVLRTLR], the minimal inhibitory concentration (MIC) in experiment [19] was determined as 2.58 µM (≈ 8 µg/mL); in experiment [20], 10.3 µM (≈ 32 µg/mL); in experiment [21] it was 5.17 µM (≈ 16 µg/mL); in [22], 1.29 µM (≈ 4 µg/mL); in the experiment on Pseudomonas aeruginosa 1, 2.58 µM (≈ 8 µg/mL); with Pseudomonas aeruginosa 5, 5.17 µM (≈ 16 µg/mL). In experiment [10], this compound displayed an MIC of 2.58 µM (≈ 8 µg/mL).
For `CC[C@H](C)[C@H](NC(=O)[C@H](C)NC(=O)[C@@H](NC(=O)[C@H](C)NC(=O)CNC(=O)[C@H](CCSC)NC(=O)[C@H](CCC(N)=O)NC(=O)[C@H](CC(C)C)NC(=O)[C@H](CO)NC(=O)[C@@H](N)Cc1ccc(O)cc1)[C@@H](C)O)C(=O)N[C@@H](CCCCN)C(=O)N[C@@H](CCC(N)=O)C(=O)N[C@H](C(=O)N[C@@H](CCCCN)C(=O)N[C@@H](CCCCN)C(=O)N[C@@H](CC(C)C)C(=O)N[C@@H](Cc1ccccc1)C(=O)N[C@@H](CCCCN)C(=O)N[C@@H](CCCCN)C(=O)N[C@@H](Cc1c[nH]c2ccccc12)C(=O)NCC(=O)N[C@@H](Cc1c[nH]c2ccccc12)C(=O)O)C(C)C` [YSLQMGATAIKQVKKLFKKWGW], the minimum inhibitory concentration (MIC) in [23] is 6 µM (≈ 15.7 µg/mL); in [24], 6 µM (≈ 15.7 µg/mL); in [25], 0.25 µM (≈ 0.653 µg/mL); in experiment [26], 0.5 µM (≈ 1.31 µg/mL); in [27] it was 6 µM (≈ 15.7 µg/mL); in experiment [28], 1 µM (≈ 2.61 µg/mL). Besides, the minimum inhibitory concentration (MIC) in experiment [29] is 0.25 µM (≈ 0.653 µg/mL); in experiment [30] it was 6 µM (≈ 15.7 µg/mL); in experiment [31] it was 0.1 µM (≈ 0.261 µg/mL); in experiment [32], 0.05 µM (≈ 0.131 µg/mL).
